Data published in patent publication US20050137251A1, “Dexanabinol and dexanabinol analogs regulate inflammation related genes” (priority 2002, published 2005).

What was measured:
[1] = test system: carrageenan induced paw edema; assay: Carrageenan induced paw edema; type: in vivo, mice; details: 3 hours after carrageenan
PGE2 secretion = assay: Inhibition of PGE2 secretion in LPS activated mouse macrophages (RAW 264.7); type: cell-based; details: RAW264.7, LPS activated RAW 264.7 cells, same experimental setup, known anti-inflammatory drugs
Description: The assay reproduces in vitro the true enzymatic activity, the test compounds, up to 10 μM, were preincubated for 5 minutes with purified COX-2, then the natural substrate AA was added and the reaction was allowed to proceed for 2 minutes. HCl was used to stop the enzyme catalysis and saturated stannous chloride was added to stabilize the PGH2 product into PGF2α.
RAW 264.7 macrophages, a mouse cell line (ATCC # TIB 71), were grown in Dulbecco's modified Eagle's medium (DMEM) with 4 mM L-glutamine adjusted to contain 1.5 g/L sodium bicarbonate, 4.5 g/L glucose, and 10% heat inactivated fetal bovine serum. Cells were grown in tissue culture flasks and seeded at appropriate density into 24 wells tissue culture plates. 0.5×10^6 Raw cells in one milliliter were stimulated with 2 μg/ml Lipopolysaccharide E. coli 055:B5 (DIFCO Laboratories). The mouse macrophages were pre-treated for one hour with controls or 10 μM of dexanabinol and its analogs, unless indicated otherwise, and later on activated with LPS.

[2] = test system: ConA injured liver (ALT release); assay: ALT release from ConA injured liver; type: in vivo, mice; details: PRS-211,092 5 mg/kg, FK-506 1 mg/kg
Description: (§1) Each experimental group contained at least twenty BALB/c inbred female mice (25 g average weight, Harlan, Israel). The negative control group was composed of mice injected with saline instead of ConA. The injection of ConA (Sigma) was done i.v. at the base of the tail at the dose of 15 mg/kg in saline. The treatments were injected i.v. at 5 mg/kg, 30 minutes before ConA injection, unless indicated otherwise. Compounds were dissolved in cremophor:ethanol, further diluted with saline before injection, and vehicle only was included as an internal control. Analysis was performed at predetermined time points following ConA injection.
Impact of treatment was monitored at three levels. First, blood samples (200-400 μl) were collected at predetermined time points after ConA injection, using retro-orbital puncture. After short centrifugation (5000 rpm for 2 min) serum was recovered and stored at −80° C. until further use for determination of cytokines concentrations by ELISA and aminotransferase release from the liver as a marker for liver injury.
Alanine aminotransferase (ALT) is an enzyme found mainly in the liver and it is measured to determine whether the liver is damaged or diseased in a variety of human conditions, especially hepatitis and cirrhosis. The level of its release into the bloodstream linearly correlates with the severity of the liver injury and thus it can be used both for diagnosis purposes and to monitor the efficiency of a treatment. The time course of plasma ALT release after ConA injection is known from the literature to peak at eight hours. […] We used this assay to preliminarily assess the temporal window of PRS-211,092 efficiency and the compound was administered either 30 or 60 minutes after induction of injury. […] FK-506 was used as positive control and at the dose of 1 mg/kg, it reduced ALT concentrations by 92%, 93% and 86% when injected at the three previously described time points. Thus, the test compound has an important beneficial impact on liver injury as assessed by the reduction of ALT, a robust marker of the liver injury. […]

[3] = test system: haptoglobin gene expression; assay: Haptoglobin liver gene expression (acute phase response), ConA model; type: in vivo, mice; details: 1 mg/kg, on average at both time points of four and eight hours
Description: (§2) II reverse transcriptase (Life Technologies).
as §1
(§3) The acute phase response is an innate body defense seen during acute inflammation, infection and trauma, which involves the altered production of certain blood proteins termed acute phase proteins (APPs). As previously stated activated macrophages and other leukocytes release pro-inflammatory cytokines such as TNF-α, IL-1 and IL-6. These cytokines in turn stimulate hepatocytes to synthesize and secrete acute phase proteins such as C-reactive protein (CRP), mannose-binding lectin (MBL), haptoglobin and serum amyloid A (SAA). Measurement of acute phase protein level is used to monitor the severity of the innate response and thus predict the prognosis of the disease. […]

SAA-3 gene expression = assay: SAA-3 liver gene expression (acute phase response), ConA model; type: in vivo, mice; details: 1 mg/kg, on average at both time points of four and eight hours
Description: as §2, §1, §3

recombinant COX-2 = recombinant COX-2 (Homo sapiens, UniProt P35354); assay: In vitro enzymatic activity of recombinant COX-2 (PGF2α EIA); type: biochemical
Chain of recombinant COX-2 (P35354 18-604): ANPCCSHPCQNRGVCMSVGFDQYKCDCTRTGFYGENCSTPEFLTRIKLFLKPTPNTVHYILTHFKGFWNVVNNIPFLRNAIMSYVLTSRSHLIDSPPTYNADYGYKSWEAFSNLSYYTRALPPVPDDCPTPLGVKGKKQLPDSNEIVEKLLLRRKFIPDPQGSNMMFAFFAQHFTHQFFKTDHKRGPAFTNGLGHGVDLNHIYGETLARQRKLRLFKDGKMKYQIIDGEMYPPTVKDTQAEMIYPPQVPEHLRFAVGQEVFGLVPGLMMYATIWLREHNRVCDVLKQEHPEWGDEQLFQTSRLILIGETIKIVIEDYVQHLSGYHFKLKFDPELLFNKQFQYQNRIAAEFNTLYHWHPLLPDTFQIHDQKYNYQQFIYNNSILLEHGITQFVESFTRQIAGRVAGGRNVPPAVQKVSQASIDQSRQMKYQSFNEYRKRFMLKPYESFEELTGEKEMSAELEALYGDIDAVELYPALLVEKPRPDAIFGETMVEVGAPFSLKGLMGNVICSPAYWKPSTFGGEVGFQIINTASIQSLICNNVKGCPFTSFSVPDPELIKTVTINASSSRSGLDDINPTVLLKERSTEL

Row | SMILES | Reduction in paw thickness ([1]; 0.1 mg/kg i.p.) [%] | Reduction in paw thickness ([1]; 0.25 mg/kg i.p.) [%] | Reduction in paw thickness ([1]; 0.5 mg/kg i.p.) [%] | IC50 (PGE2 secretion) [µM] | other results
1 | Cc1ccc(-c2cc(C(F)(F)F)nn2-c2ccc(S(N)(=O)=O)cc2)cc1 [Celecoxib] | 24 | 28 | 33 | 0.005 | 
2 | C=CC[C@@H]1/C=C(\C)C[C@H](C)C[C@H](OC)[C@H]2O[C@@](O)(C(=O)C(=O)N3CCCC[C@H]3C(=O)O[C@H](/C(C)=C/[C@@H]3CC[C@@H](O)[C@H](OC)C3)[C@H](C)[C@@H](O)CC1=O)[C@H](C)C[C@@H]2OC [FK-506] |  |  |  |  | Reduction of ALT concentrations ([2]; administered 30 minutes after induction of injury): 93%; Reduction of ALT concentrations ([2]; administered 30 minutes before ConA, 8 hours after ConA): 92%; Reduction of ALT concentrations ([2]; administered 60 minutes after induction of injury): 86%; Reduction in gene expression of haptoglobin [3]: 78%; Reduction in gene expression of SAA-3 (SAA-3 gene expression): 97%
3 | C[C@@H]1C[C@H]2[C@@H]3CCC4=CC(=O)C=C[C@]4(C)[C@@]3(F)[C@@H](O)C[C@]2(C)[C@@]1(O)C(=O)CO [Dexamethasone] | 26 | 31 | 33 |  | 
4 | CS(=O)(=O)c1ccc(C2=C(c3ccccc3)C(=O)OC2)cc1 [Rofecoxib, reference compound] |  |  |  | 0.1 | Inhibition of COX-2 enzymatic activity (recombinant COX-2): strongly inhibited
5 | CS(=O)(=O)Nc1ccc([N+](=O)[O-])cc1OC1CCCCC1 [NS-398] |  |  |  | 0.1 | 
